This experiment deals with P388 leukemia ip, CD2F1 mice, survival T/C. As to the kind of experiment: NCI In Vivo Anticancer Drug Screen. Data for tumor model P388 Leukemia (intraperitoneal) in CD2F1 (CDF1) mice. Particulars: endpoint: median survival time, higher = longer survival. An outline of the steps:
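Mice carrying the transplanted tumor received test compound or vehicle. Survival was recorded in each group, and the value is the treated-group measurement divided by that of the vehicle-treated control group.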

Where [1] appears, read: dose: 12.5 mg/kg/injection, schedule: Q01DX009 (ip), vehicle: saline.
Where [2] appears, read: dose: 25.0 mg/kg/injection, schedule: Q01DX009 (ip), vehicle: saline.
Where [3] appears, read: dose: 50.0 mg/kg/injection, schedule: Q01DX009 (ip), vehicle: saline.
Setting [4] is: dose: 60.0 mg/kg/injection, schedule: Q01DX005 (ip), vehicle: Klucel (hydroxypropylcellulose) (HPC).
[5] abbreviates: dose: 60.0 mg/kg/injection, schedule: Q01DX005 (ip), vehicle: saline with Tween-80.
Setting [6] is: dose: 120.0 mg/kg/injection, schedule: Q01DX005 (ip), vehicle: Klucel (hydroxypropylcellulose) (HPC).
Where [7] appears, read: dose: 120.0 mg/kg/injection, schedule: Q01DX005 (ip), vehicle: saline with Tween-80.
Setting [8] is: dose: 240.0 mg/kg/injection, schedule: Q01DX005 (ip), vehicle: Klucel (hydroxypropylcellulose) (HPC).
[9] abbreviates: dose: 100.0 mg/kg/injection, schedule: Q01DX009 (ip), vehicle: saline.
Setting [10] is: dose: 100.0 mg/kg/injection, schedule: Q04DX003 (ip), vehicle: saline with Tween-80.
Setting [11] is: dose: 200.0 mg/kg/injection, schedule: Q04DX003 (ip), vehicle: saline with Tween-80.
The mark [12] stands for this setting: dose: 400.0 mg/kg/injection, schedule: Q04DX003 (ip), vehicle: saline with Tween-80.
[13] abbreviates: dose: 50.0 mg/kg/injection, schedule: Q01DX009 (ip), vehicle: saline with Tween-80.
[14] abbreviates: dose: 200.0 mg/kg/injection, schedule: Q01DX009 (ip), vehicle: saline with Tween-80.
Where [15] appears, read: dose: 6.25 mg/kg/injection, schedule: Q01DX005 (ip), vehicle: water.
Setting [16] is: dose: 12.5 mg/kg/injection, schedule: Q01DX005 (ip), vehicle: water.
Where [17] appears, read: dose: 240.0 mg/kg/injection, schedule: Q01DX005 (ip), vehicle: saline with Tween-80.
[18] abbreviates: dose: 12.5 mg/kg/injection, schedule: Q01DX005 (ip), vehicle: Klucel (hydroxypropylcellulose) (HPC).
[19] abbreviates: dose: 25.0 mg/kg/injection, schedule: Q01DX005 (ip), vehicle: Klucel (hydroxypropylcellulose) (HPC).

These results are taken from PubChem BioAssay AID330 (DTP/NCI, 2004).

“And” between values parts separate entries of the source, which are not always exact repeats. Equal values may be shown once. Inconclusive results and toxic doses are left out.

In the case of `Oc1ccccc1O`, the T/C was 112 % of control (dose: 3.12 mg/kg/injection, schedule: Q01DX009 (ip), vehicle: saline); 104 % of control (dose: 6.25 mg/kg/injection, schedule: Q01DX009 (ip), vehicle: saline); 105 % of control under setting [1]; 105 % of control under setting [2]; 105 % of control and 106 % of control and 107 % of control under setting [3].

Regarding `COC(=O)c1c(O)c2c(c3c1OC(C)(C)CC3)OC(C)(C)CC2`, the T/C under setting [4] was 93 % of control; the T/C under setting [5] was 90 % of control; the T/C under setting [6] is 92 % of control; the T/C under setting [7] is 91 % of control; the T/C under setting [8] is 90 % of control.

As to `CSC(=S)N/N=C/c1ccc[nH]1`, the T/C is, setting by setting: under setting [3], 100 % of control; under setting [9], 94 % of control.

As to `Cc1cccc(C(=O)CCN(C)C)c1`, the T/C reads like this: under setting [1], 94 % of control; under setting [2], 99 % of control; under setting [3], 100 % of control and 101 % of control and 108 % of control; under setting [9], 98 % of control.

Regarding `CC(/C=C/c1ccccc1)=N\NC(=O)c1ccccc1O`, the T/C runs as follows: under setting [4], 93 % of control; under setting [6], 95 % of control; under setting [8], 89 % of control.

Consider `Cn1cc(O)c(=O)n(C)c1=O`, for which the T/C reads like this: under setting [10], 99 % of control; under setting [11], 105 % of control; under setting [12], 100 % of control.

Regarding `CCN(CC)Cc1cc(C)c(O)c(N=Nc2ccc3c(c2)c2ccccc2n3CC)c1C`, the T/C under setting [13] was 102 % of control; the T/C (dose: 100.0 mg/kg/injection, schedule: Q01DX009 (ip), vehicle: saline with Tween-80) was 110 % of control; the T/C under setting [14] is 101 % of control.

For `S=c1ssc2ccccc12`, the T/C under setting [10] is 100 % of control, the T/C under setting [11] is 109 % of control and the T/C under setting [12] was 109 % of control.

For `CC(C)Nc1nc(NCC2CC2)nc(ON2C(=O)CCC2=O)n1`, the T/C is, setting by setting: (dose: 12.5 mg/kg/injection, schedule: Q01DX009 (ip), vehicle: saline with Tween-80) 100 % of control; (dose: 25.0 mg/kg/injection, schedule: Q01DX009 (ip), vehicle: saline with Tween-80) 99 % of control; under setting [13], 100 % of control and 86 % of control; under setting [14], 104 % of control.

Turning to `Nc1ccnc(N)c1N=O`, the T/C by setting is: under setting [10], 103 % of control; under setting [11], 99 % of control; under setting [12], 97 % of control.

`CCOP(=O)(N=Nc1cccnc1)OCC`: the T/C runs as follows: (dose: 1.56 mg/kg/injection, schedule: Q01DX009 (ip), vehicle: water) 107 % of control; (dose: 3.12 mg/kg/injection, schedule: Q01DX009 (ip), vehicle: water) 101 % of control; under setting [15], 100 % of control; (dose: 6.25 mg/kg/injection, schedule: Q01DX009 (ip), vehicle: water) 101 % of control; under setting [16], 96 % of control; (dose: 12.5 mg/kg/injection, schedule: Q01DX009 (ip), vehicle: water) 112 % of control. Also, the T/C runs as follows: (dose: 25.0 mg/kg/injection, schedule: Q01DX005 (ip), vehicle: water) 102 % of control; (dose: 25.0 mg/kg/injection, schedule: Q01DX009 (ip), vehicle: water) 117 % of control; (dose: 50.0 mg/kg/injection, schedule: Q01DX005 (ip), vehicle: water) 103 % of control; (dose: 100.0 mg/kg/injection, schedule: Q01DX005 (ip), vehicle: water) 103 % of control.

Take `CNC(=O)Nc1nncs1`: the T/C reads like this: under setting [5], 106 % of control; under setting [7], 104 % of control; under setting [17], 106 % of control.

Consider `CCOC(=O)C1(C)C(=O)C=C(c2ccccc2)CC1c1ccccc1` (configuration not stated), for which the T/C (dose: 50.0 mg/kg/injection, schedule: Q01DX005 (ip), vehicle: saline with Tween-80) is 95 % of control; the T/C (dose: 100.0 mg/kg/injection, schedule: Q01DX005 (ip), vehicle: saline with Tween-80) is 100 % of control; the T/C (dose: 200.0 mg/kg/injection, schedule: Q01DX005 (ip), vehicle: saline with Tween-80) is 95 % of control.

Regarding `Cc1nc2ccccc2nc1C1=C(O)c2ccccc2CC1=O`, the T/C reads like this: under setting [5], 95 % of control; under setting [7], 90 % of control; under setting [17], 93 % of control.

As to `O=C(N/C=C/c1ccco1)NC1CCCCCCCCCCC1`, the T/C is 95 % of control under setting [18]; 92 % of control under setting [19]; 89 % of control (dose: 50.0 mg/kg/injection, schedule: Q01DX005 (ip), vehicle: Klucel (hydroxypropylcellulose) (HPC)).

Take `C=C(C1=CC(=O)C(C)=C(OC(=O)C2(C)OC2C)C1=O)C(CC=C(C)C)OC(=O)/C(C)=C/C` (configuration not stated): the T/C was 97 % of control (dose: 1.56 mg/kg/injection, schedule: Q01DX005 (ip), vehicle: Klucel (hydroxypropylcellulose) (HPC)); 97 % of control (dose: 3.12 mg/kg/injection, schedule: Q01DX005 (ip), vehicle: Klucel (hydroxypropylcellulose) (HPC)); 99 % of control (dose: 6.25 mg/kg/injection, schedule: Q01DX005 (ip), vehicle: Klucel (hydroxypropylcellulose) (HPC)); 99 % of control under setting [18]; 99 % of control under setting [19].

For the compound `CCCCCCCCCCCCn1cc[n+](CC(=O)N(O)Cc2ccccc2)c1C`, the T/C (dose: 1.56 mg/kg/injection, schedule: Q01DX005 (ip), vehicle: saline with Tween-80) was 93 % of control; the T/C (dose: 3.12 mg/kg/injection, schedule: Q01DX005 (ip), vehicle: saline with Tween-80) is 90 % of control; the T/C (dose: 6.25 mg/kg/injection, schedule: Q01DX005 (ip), vehicle: saline with Tween-80) was 86 % of control.

Consider `O=C(CC[N+](=O)[O-])OCC1OC(O)C(OC(=O)CC[N+](=O)[O-])C(O)C1O` (configuration not stated), for which the T/C is, setting by setting: (dose: 12.5 mg/kg/injection, schedule: Q01DX005 (ip), vehicle: distilled water + Tween-80) 100 % of control; (dose: 18.75 mg/kg/injection, schedule: Q01DX001 (ip), vehicle: saline + alcohol) 100 % of control; (dose: 25.0 mg/kg/injection, schedule: Q01DX005 (ip), vehicle: distilled water + Tween-80) 97 % of control; (dose: 37.5 mg/kg/injection, schedule: Q01DX001 (ip), vehicle: saline + alcohol) 101 % of control; (dose: 50.0 mg/kg/injection, schedule: Q01DX005 (ip), vehicle: distilled water + Tween-80) 100 % of control; (dose: 75.0 mg/kg/injection, schedule: Q01DX001 (ip), vehicle: saline + alcohol) 109 % of control. Further, the T/C by setting is: (dose: 100.0 mg/kg/injection, schedule: Q01DX005 (ip), vehicle: distilled water + Tween-80) 98 % of control; (dose: 200.0 mg/kg/injection, schedule: Q01DX005 (ip), vehicle: distilled water + Tween-80) 100 % of control.

In the case of `Cc1csc(=S)n1C`, the T/C was 92 % of control under setting [3] and 95 % of control under setting [9].

For the compound `CCCCCCCCCCCCCCCCC1(C)c2ccccc2N(C)C12C=Cc1cc([N+](=O)[O-])ccc1O2` (configuration not stated), the T/C is 103 % of control under setting [10], 100 % of control under setting [11] and 100 % of control under setting [12].

As to `O=C(O)C12C=CC(CC1)CC2`, the T/C is, setting by setting: under setting [4], 99 % of control; under setting [6], 105 % of control; under setting [8], 100 % of control.

As for `CCN(CC)CCn1[nH]c2c3ccc(=O)cc3sc3c(NCCN)ccc1c32`, the T/C is, setting by setting: (dose: 3.12 mg/kg/injection, schedule: Q01DX005 (ip), vehicle: water) 122 % of control and 229 % of control and 242 % of control; under setting [15], 184 % of control and 250 % of control and 280 % of control; under setting [16], 166 % of control and 194 % of control and 271 % of control.

Turning to `O=C1CCSC(=S)N1c1ccccc1C(F)(F)F`, the T/C is 90 % of control (dose: 50.0 mg/kg/injection, schedule: Q01DX009 (ip), vehicle: suspension in saline); 92 % of control (dose: 100.0 mg/kg/injection, schedule: Q01DX009 (ip), vehicle: suspension in saline); 99 % of control (dose: 200.0 mg/kg/injection, schedule: Q01DX009 (ip), vehicle: suspension in saline).
